Measured values taken from patent publication US6455587B1 (priority 2000, dated 2002).

Molecular target: T1, recombinant HIV-1 protease (Human immunodeficiency virus type 1 group M subtype B, UniProt P04585)
T1 construct: recombinant HIV-1 protease (final concentration 2.18 nM) purchased from Bachem Bioscience; purchased Bachem Bioscience
Assay: Enzymatic fluorometric (FRET) assay for determining the inhibition constant (Ki) against HIV protease
Assay type: biochemical
Conditions: Ki (nM)
Procedure, shortened: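 FRET substrate (EDANS/DABCYL) cleavage followed at 31° C., ex 340/em 485 nm. Initial velocity recorded over 4 min, then inhibitor added at several concentrations and rate read another 4 min. Ki derived from v0 and vi via Henderson equation using [S] and Km.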

Molecule	Ki [nM]
CC(C)(C)OC(=O)N[C@@H](CCCCNC(=O)OCC1c2ccccc2-c2ccccc21)C(=O)O [Compound 138]	> 200

Same assay, conditions: fluorometric FRET assay, 31° C., pH 4.7, recombinant HIV-1 protease 2.18 nM, substrate 10 μM; read-out: Ki

Molecule	Ki [nM]
CC(C)CN([C@@H](CCCCNC(=O)CCc1cccnc1)C(=O)O)S(=O)(=O)c1ccc(N)cc1 [Compound 195, Nα-Isobutyl-Nα-(4-aminobenzenesulfonyl)-Nε-[3-(3-pyridyl)propionyl]-L-lysine]	> 300
COc1cccc(CCC(=O)NCCCC[C@@H](C(=O)O)N(CC(C)C)S(=O)(=O)c2ccc(C)cc2)c1OC [Compound 201, Nα-Isobutyl-Nα-(4-methylbenzenesulfonyl)-Nε-(2,3-dimethoxydihydrocinnamoyl)-L-lysine]	15
CC(C)CN([C@@H](CCCCNC(=O)CCc1ccc(N)cc1)C(=O)O)S(=O)(=O)c1ccc(N)cc1 [Compound 194, Nα-Isobutyl-Nα-(4-aminobenzenesulfonyl)-Nε-(4-aminodihydrocinnamoyl)-L-lysine]	> 300
COc1ccc(C=CC(=O)NCCCC[C@@H](C(=O)O)N(CC(C)C)S(=O)(=O)c2ccc([N+](=O)[O-])cc2)c(OC)c1 [Compound 191, Nα-Isobutyl-Nα-(4-nitrobenzenesulfonyl)-Nε-(2,4-dimethoxycinnamoyl)-L-lysine]	> 75

Same assay, conditions: fluorometric FRET assay, recombinant HIV-1 protease, pH 4.7, 31° C.; read-out: Ki

Molecule	Ki [nM]
CC(C)CN([C@@H](CCCCNC(=O)CCc1c[nH]c2ccccc12)C(=O)O)S(=O)(=O)c1ccc(N)cc1 [Compound 98, Nα-Isobutyl-Nα-(4-aminobenzenesulfonyl)-Nε-(3-indolepropionyl)-L-lysine]	10.1
COc1ccccc1/C=C\C(=O)NCCCC[C@@H](C(=O)O)N(CC(C)C)S(=O)(=O)c1ccc([N+](=O)[O-])cc1 [Compound 186, Nα-Isobutyl-Nα-(4-nitrobenzenesulfonyl)-Nε-(cis-2-methoxycinnamoyl)-L-lysine]	39.8
O=C(N[C@@H](CCCCNS(=O)(=O)c1cc(Cl)ccc1Cl)C(=O)O)OCC1c2ccccc2-c2ccccc21 [Compound 54, Nε-(2,5-Dichlorobenzenesulfonyl)-Nα-(9-fluorenylmethoxycarbonyl)-L-lysine]	> 6250
CC(C)CN([C@@H](CCCCNC(=O)CCCc1ccccc1)C(=O)O)S(=O)(=O)c1ccc(N)cc1 [Compound 121, Nα-Isobutyl-Nα-(4-aminobenzenesulfonyl)-Nε-(4-phenylbutanoyl)-L-lysine]	> 300
COc1ccc(CCC(=O)NCCCC[C@@H](C(=O)O)N(CC(C)C)S(=O)(=O)c2ccc(N)cc2)cc1 [Compound 120, Nα-Isobutyl-Nα-(4-aminobenzenesulfonyl)-Nε-(4-methoxydihydrocinnamoyl)-L-lysine]	12.4
O=C(N[C@@H](CCCCNS(=O)(=O)c1ccc(Br)cc1)C(=O)O)c1cnc2cc(C(F)(F)F)ccc2c1O [Compound 23, Nα-(4-hydroxy-7-trifluoromethylquinoline-3-carbonyl)-Nε-(4-bromobenzenesulfonyl)-L-lysine]	> 50000
O=C(N[C@@H](CCCCNS(=O)(=O)c1cccc(C(F)(F)F)c1)C(=O)O)OCC1c2ccccc2-c2ccccc21 [Compound 34, Nε-(3-Trifluoromethylbenzenesulfonyl)-Nα-(9-fluorenylmethoxycarbonyl)-L-lysine]	22000
CC(C)CN([C@@H](CCCCNC(=O)OCC1c2ccccc2-c2ccccc21)C(=O)O)S(=O)(=O)c1ccc(Br)cc1 [Compound 4, Nα-Isobutyl-Nα-(4-bromobenzenesulfonyl)-Nε-(9-fluorenylmethoxycarbonyl)-L-lysine]	11.4
Cc1ccc(S(=O)(=O)N(CC(C)C)C(CCCCNC(=S)CCc2ccccc2)C(=O)O)cc1 (racemic) [Compound 153, Nα-Isobutyl-Nα-(4-methylbenzenesulfonyl)-Nε-dihydrothiocinnamoyl-DL-lysine]	151
O=C(NCCC[C@H](NC(=O)OCC1c2ccccc2-c2ccccc21)C(=O)O)OCC1c2ccccc2-c2ccccc21 [Compound 73, Nα,Nδ-di-(9-Fluorenylmethoxycarbonyl)-L-ornithine]	1300
CC(C)CN([C@@H](CCCCNC(=O)OCC1c2ccccc2-c2ccccc21)C(=O)O)S(=O)(=O)c1cccc2ccccc12 [Compound 8, Nα-Isobutyl-Nα-(1-naphthalenesulfonyl)-Nε-(9-fluorenylmethoxycarbonyl)-L-lysine]	54.9
Cc1ccc(S(=O)(=O)N(CC(C)C)C(CCCCNC(=O)c2cc3ccccc3[nH]2)C(=O)O)cc1 (centres unmarked) [Compound 88]	> 625
COc1ccccc1/C=C/C(=O)NCCCC[C@@H](C(=O)O)N(CC(C)C)S(=O)(=O)c1ccc([N+](=O)[O-])cc1 [Compound 161, Nα-Isobutyl-Nα-(4-nitrobenzenesulfonyl)-Nε-(trans-2-methoxycinnamoyl)-L-lysine]	> 300
O=C(N[C@@H](CCCCNS(=O)(=O)c1ccc(I)cc1)C(=O)O)OCC1c2ccccc2-c2ccccc21 [Compound 64, Nε-(4-Iodobenzenesulfonyl)-Nα-(9-fluorenylmethoxycarbonyl)-L-lysine]	19200
CC(C)CN([C@@H](CCCCNC(=O)CCc1cccc(N)c1)C(=O)O)S(=O)(=O)c1ccc(N)cc1 [Compound 118, Nα-Isobutyl-Nα-(4-aminobenzenesulfonyl)-Nε-(3-aminodihydrocinnamoyl)-L-lysine]	20.5
Cc1ccc(S(=O)(=O)N(CC(C)C)[C@@H](CCCCNC(=O)CCc2ccc(O)cc2)C(=O)O)cc1 [Compound 126, Nα-Isobutyl-Nα-(4-methylbenzenesulfonyl)-Nε-(4-hydroxydihydrocinnamoyl)-L-lysine]	> 300
COC(=O)[C@H](CCCCNS(=O)(=O)c1ccc(Br)cc1)NC(=O)OCC1c2ccccc2-c2ccccc21 [Compound 15, Nα-(9-Fluorenylmethoxycarbonyl)-Nε-(4-bromobenzenesulfonyl)-L-lysine Methyl Ester]	47000
O=C(NCCCC[C@H](NS(=O)(=O)c1ccc(Br)cc1)C(=O)O)OCC1c2ccccc2-c2ccccc21 [Compound 66, Nα-(4-Bromobenzenesulfonyl)-Nε-(9-fluorenylmethoxycarbonyl)-L-lysine]	1900

Molecule	Ki [nM]
CC(C)c1cc(C(C)C)c(S(=O)(=O)NCCCC[C@H](NC(=O)OCC2c3ccccc3-c3ccccc32)C(=O)O)c(C(C)C)c1 [Compound 25, Nε-(2,4,6-Triisopropylbenzenesulfonyl)-Nα-(9-fluorenylmethoxycarbonyl)-L-lysine]	> 3100
Cc1cc(C)c(S(=O)(=O)NCCCC[C@H](NC(=O)OCC2c3ccccc3-c3ccccc32)C(=O)O)c(C)c1 [Compound 27, Nε-(2,4,6-Trimethylbenzenesulfonyl)-Nα-(9-fluorenylmethoxycarbonyl)-L-lysine]	> 50000
Nα-(9-fluorenylmethoxycarbonyl)-L-lysyl-Nα-(9-fluorenylmethoxycarbonyl)-Nε-(2,4,6-trimethylbenzenesulfonyl)-L-lysine [Compound 26]	63000
Nα-Isobutyl-Nα-(4-nitrobenzenesulfonyl)-Nε-(4-nitrocinnamoyl)-L-lysine [Compound 111]	33
Cc1ccc(S(=O)(=O)N(CC(C)C)[C@@H](CO)CCCCNC(=O)OCC2c3ccccc3-c3ccccc32)cc1 [Compound 124, (2R)-N-Isobutyl-N-(4-methylbenzenesulfonylamino)-6-(9-fluorenylmethoxycarboxylamino)-1-hexanol]	208
Cc1ccc(S(=O)(=O)N(Cc2ccccc2)[C@@H](CCCCNC(=O)OCC2c3ccccc3-c3ccccc32)C(=O)O)cc1 [Compound 40, Nα-Benzyl-Nα-(4-methylbenzenesulfonyl)-Nε-(9-fluorenylmethoxycarbonyl)-L-lysine]	19.6
O=C(N[C@@H](CCCCNS(=O)(=O)c1ccc(Br)cc1)C(=O)O)c1ccccc1 [Compound 65, Nα-Benzoyl-Nε-(4-bromobenzenesulfonyl)-L-lysine]	> 50000
Nα, Nε-diisobutyl-Nα-(4-methylbenzenesulfonyl)-Nε-(3-phenylpropanoyl)-DL-lysine [Compound 159]	28000
CC(C)CN([C@@H](CCCCNC(=O)CCc1ccccc1N)C(=O)O)S(=O)(=O)c1ccc(N)cc1 [Compound 122, Nα-Isobutyl-Nα-(4-aminobenzenesulfonyl)-Nε-(2-aminodihydrocinnamoyl)-L-lysine]	> 300
Nα-(4-Chlorobenzenesulfonyl)-Nδ-(9-fluorenylmethoxycarbonyl)-L-ornithine [Compound 74]	> 25000
COc1ccc(S(=O)(=O)N[C@@H](CCCCNC(=O)OCC2c3ccccc3-c3ccccc32)C(=O)O)cc1 [Compound 104, Nα-(4-Methoxylbenzenesulfonyl)-Nε-(9-fluorenylmethoxycarbonyl)-L-lysine]	3160
Cc1ccc(S(=O)(=O)N(CC(C)C)[C@@H](CCCCNC(=O)C2c3ccccc3Oc3ccccc32)C(=O)O)cc1 [Compound 85]	14.5
COc1ccccc1CCC(=O)NCCCC[C@@H](C(=O)O)N(CC(C)C)S(=O)(=O)c1ccc(N)cc1 [Compound 157, Nα-Isobutyl-Nα-(4-aminobenzenesulfonyl)-Nε-(2-methoxydihydrocinnamoyl)-L-lysine]	18.9
Cc1ccc(S(=O)(=O)N(CC(C)C)[C@@H](CCCCNC(=O)CCc2ccccc2)C(=O)O)cc1 [Compound 91]	8
Nα-Isobutyl-Nα-(4-methylbenzenesulfonyl)-Nε-phenoxyacetyl-L-lysine [Compound 203]	16000
CC(C)CN([C@@H](CCCCNC(=O)C1c2ccccc2Oc2ccccc21)C(=O)O)S(=O)(=O)c1ccc([N+](=O)[O-])cc1 [Compound 96, Nα-Isobutyl-Nα-(4-nitrobenzenesulfonyl)-Nε-(9-xanthenecarbonyl)-L-lysine]	43.9
Nα-Isobutyl-Nα-(4-aminobenzenesulfonyl)-Nε-(3,4-methylenedioxydihydrocinnamoyl)-L-lysine [Compound 155]	> 300
Nε-(2,4,6-Triisopropylbenzenesulfonyl)-Nα-(9-fluorenylmethoxycarbonyl)-L-lysine [Compound 25]	15.4
